Measured values: patent publication US20230339981A1, “KRAS G12D MODULATING COMPOUNDS” (priority 2022, published 2023)

How the values were obtained:
[1] = target: GDP-loaded KRAS G12D (Homo sapiens (Human), UniProt P01116, G12D); assay: KRAS G12D (GDP) biochemical assay (TR-FRET probe displacement); format: binding; settings: 2 hours
In short: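 Compound pre-incubated 30 min with GDP-loaded KRAS G12D in 50 mM Hepes pH 7.4, 150 mM NaCl, 5 mM MgCl2, 0.005% Tween-20, then Eu-streptavidin and TR-FRET probe added. After 2 h at room temperature, TR-FRET ratio read; IC50 is 50% ratio decrease, sigmoidal fit.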

[2] = system: GP2D (KRAS G12D) cells; assay: 2D cell viability assay (CellTiter-Glo); format: cell-based; settings: GP2d, 96 h, 4 days
In short: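 GP2D (KRAS G12D) cells, 1000/well in RPMI + 10% FBS, were plated onto compound (1:3 DMSO series) and grown 4 days at 37 °C, 5% CO2 in 2D. CellTiter-Glo luminescence was read; EC50 is the concentration giving 50% signal decrease, from sigmoidal fit.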

GDP-loaded KRAS G12D, sequence (P01116-2 other isoform, or with tags, fused parts or gaps G12D): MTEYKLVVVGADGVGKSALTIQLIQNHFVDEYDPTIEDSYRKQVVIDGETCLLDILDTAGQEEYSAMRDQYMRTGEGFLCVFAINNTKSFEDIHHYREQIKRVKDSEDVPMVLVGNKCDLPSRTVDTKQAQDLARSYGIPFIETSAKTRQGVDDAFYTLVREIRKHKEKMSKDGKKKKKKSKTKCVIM

Row | Structure (SMILES) | IC50 [1] [µM] | EC50 [2] [µM]
1 | C#Cc1c(F)ccc2cccc(-c3nc4c5c(nc(OCC6(CN7CCC8(CC7)CC8(F)F)CC6)nc5c3F)N3C[C@H]5CC[C@H](N5)[C@@H]3[C@@H](C)C4)c12 [Example 136, (5S,5aS,6S,9R)-12-((1-((1,1-difluoro-6-azaspiro[2.5]octan-6-yl)methyl)cyclopropyl)methoxy)-2-(8-ethynyl-7-fluoronaphthalen-1-yl)-1-fluoro-5-methyl-4,5,5a,6,7,8,9,10-octahydro-3,10a,11,13,14-pentaaza-6,9-methanonaphtho[1,8-ab]heptalene] | 0.0171 | 0.1
2 | C#Cc1c(F)ccc2cccc(-c3nc4c5c(nc(OCC67CCCN6C[C@H](OC(F)(F)F)C7)nc5c3F)N3C[C@H]5CC[C@H](N5)[C@H]3CC4)c12 (stereo partly drawn) [Example 137, (5aR,6S,9R)-2-(8-ethynyl-7-fluoronaphthalen-1-yl)-1-fluoro-12-((cis-2-(trifluoromethoxy)tetrahydro-1H-pyrrolizin-7a(5H)-yl)methoxy)-4,5,5a,6,7,8,9,1O-octahydro-3,10a,11,13,14-pentaaza-6,9-methanonaphtho[1,8-ab]heptalene] | 0.0245 | 0.1
3 | C#Cc1c(F)ccc2cc(O)cc(-c3nc4c5c(nc(OCC67CCCN6C[C@H](OC(F)(F)F)C7)nc5c3F)N3C[C@H]5CC[C@H](N5)[C@H]3CC4)c12 (stereo partly drawn) [Example 138, 5-ethynyl-6-fluoro-4-((5aR,6S,9R)-1-fluoro-12-((cis-2-(trifluoromethoxy)tetrahydro-1H-pyrrolizin-7a(5H)-yl)methoxy)-4,5,5a,6,7,8,9,10-octahydro-3,10a,11,13,14-pentaaza-6,9-methanonaphtho[1,8-ab]heptalen-2-yl)naphthalen-2-ol] | 0.0003 | 0.0172
4 | C#Cc1c(F)ccc2cc(O)cc(-c3nc4c5c(nc(OC[C@]67CCCN6C[C@H](OC(C(F)(F)F)(C(F)(F)F)C(F)(F)F)C7)nc5c3F)N3C[C@H]5CC[C@H](N5)[C@H]3CC4)c12 [Example 144, 5-ethynyl-6-fluoro-4-((5aR,6S,9R)-1-fluoro-12-((cis-2-((1,1,1,3,3,3-hexafluoro-2-(trifluoromethyl)propan-2-yl)oxy)tetrahydro-1H-pyrrolizin-7a(5H)-yl)methoxy)-4,5,5a,6,7,8,9,10-octahydro-3,10a,11,13,14-pentaaza-6,9-methanonaphtho[1,8-ab]heptalen-2-yl)naphthalen-2-ol] | 0.0831 | 0.1
5 | C#Cc1c(F)ccc2cccc(-c3nc4c5c(nc(OC[C@]67CCCN6C[C@H](OC(C(F)(F)F)(C(F)(F)F)C(F)(F)F)C7)nc5c3F)N3C[C@H]5CC[C@H](N5)[C@H]3CC4)c12 [Example 145, (5aR,6S,9R)-2-(8-ethynyl-7-fluoronaphthalen-1-yl)-1-fluoro-12-((cis-2-((1,1,1,3,3,3-hexafluoro-2-(trifluoromethyl)propan-2-yl)oxy)tetrahydro-1H-pyrrolizin-7a(5H)-yl)methoxy)-4,5,5a,6,7,8,9,10-octahydro-3,10a,11,13,14-pentaaza-6,9-methanonaphtho[1,8-ab]heptalene] | 0.1 | 0.1
6 | C#Cc1c(F)ccc2cccc(-c3nc4c5c(nc(OCC6(CN7CCC(C(F)(F)F)CC7)CC6)nc5c3F)N3C[C@H]5CC[C@H](N5)[C@@H]3[C@@H](C)C4)c12 [Example 146, (5S,5aS,6S,9R)-2-(8-ethynyl-7-fluoronaphthalen-1-yl)-1-fluoro-5-methyl-12-((1-((4-(trifluoromethyl)piperidin-1-yl)methyl)cyclopropyl)methoxy)-4,5,5a,6,7,8,9,10-octahydro-3,10a,11,13,14-pentaaza-6,9-methanonaphtho[1,8-ab]heptalene] | 0.0156 | 0.1
7 | C#Cc1c(F)ccc2cc(O)cc(-c3nc4c5c(nc(OC[C@@]67CCCN6[C@H](COc6cc(C(F)(F)F)ncn6)CC7)nc5c3F)N3C[C@H]5CC[C@H](N5)[C@H]3CC4)c12 [Example 149, 5-ethynyl-6-fluoro-4-((5aR,6S,9R)-1-fluoro-12-(((3S,7aS)-3-(((6-(trifluoromethyl)pyrimidin-4-yl)oxy)methyl)tetrahydro-1H-pyrrolizin-7a(5H)-yl)methoxy)-4,5,5a,6,7,8,9,10-octahydro-3,10a,11,13,14-pentaaza-6,9-methanonaphtho[1,8-ab]heptalen-2-yl)naphthalen-2-ol] | < 0.0001 | 0.0003
8 | C#Cc1c(F)ccc2cccc(-c3nc4c5c(nc(OC[C@@]67CCCN6[C@H](COC(C(F)(F)F)C(F)(F)F)CC7)nc5c3F)N3C[C@H]5CC[C@H](N5)[C@H]3CC4)c12 [Example 150, (5aR,6S,9R)-2-(8-ethynyl-7-fluoronaphthalen-1-yl)-1-fluoro-12-(((3S,7aS)-3-(((1,1,1,3,3,3-hexafluoropropan-2-yl)oxy)methyl)tetrahydro-1H-pyrrolizin-7a(5H)-yl)methoxy)-4,5,5a,6,7,8,9,10-octahydro-3,10a,11,13,14-pentaaza-6,9-methanonaphtho[1,8-ab]heptalene] | 0.0002 | 0.0472
9 | C#Cc1c(F)ccc2cccc(-c3nc4c5c(nc(OC[C@@]67CCCN6[C@H](COc6ccnc(C(F)(F)F)n6)CC7)nc5c3F)N3C[C@H]5CC[C@H](N5)[C@H]3CC4)c12 [Example 151, (5aR,6S,9R)-2-(8-ethynyl-7-fluoronaphthalen-1-yl)-1-fluoro-12-(((3S,7aS)-3-(((2-(trifluoromethyl)pyrimidin-4-yl)oxy)methyl)tetrahydro-1H-pyrrolizin-7a(5H)-yl)methoxy)-4,5,5a,6,7,8,9,10-octahydro-3,10a,11,13,14-pentaaza-6,9-methanonaphtho[1,8-ab]heptalene] | 0.0001 | 0.005
10 | C#Cc1c(F)ccc2cccc(-c3nc4c5c(nc(OC[C@@]67CCCN6[C@H](COc6cc(C(F)(F)F)ncn6)CC7)nc5c3F)N3C[C@H]5CC[C@H](N5)[C@H]3CC4)c12 [Example 152, (5aR, 6S, 9R)-2-(8-ethynyl-7-fluoronaphthalen-1-yl)-1-fluoro-12-(((3S,7aS)-3-(((6-(trifluoromethyl)pyrimidin-4-yl)oxy)methyl)tetrahydro-1H-pyrrolizin-7a(5H)-yl)methoxy)-4,5,5a,6,7,8,9,10-octahydro-3,10a,11,13,14-pentaaza-6,9-methanonaphtho[1,8-ab]heptalene] | 0.0001 | 0.0054
11 | C#Cc1c(F)ccc2cccc(-c3nc4c5c(nc(OC[C@@]67CCCN6[C@H](COc6cc(C(F)(F)F)ncn6)CC7)nc5c3F)N3C[C@H]5CC[C@H](N5)[C@H]3CCC4)c12 [Example 154, (6aR,7S,10R)-2-(8-ethynyl-7-fluoronanhthalen-1-yl)-1-fluoro-13-(((3S,7aS)-3-(((6-(trifluoromethyl)pyrimidin-4-yl)oxy)methyl)tetrahydro-1H-pyrrolizin-7a(5H)-yl)methoxy)-5,6,6a,7,8,9,10,11-octahydro-4H-3,11a,12,14,15-pentaaza-7,10-methanocyclohepta[4,5]cycloocta[1,2,3-de]naphthalene] | 0.0001 | 0.001
12 | C#Cc1c(F)ccc2cccc(-c3nc4c5c(nc(OC[C@@]67CCCN6C[C@H](F)C7)nc5c3F)N3C[C@H]5CC[C@H](N5)[C@@H]3[C@@H](C)CC4)c12 [Example 156, (6S,6aS,7S,10R)-2-(8-ethynyl-7-fluoronaphthalen-1-yl)-1-fluoro-13-(((2R,7aS)-2-fluorotetrahydro-1H-pyrrolizin-7a(5H)-yl)methoxy)-6-methyl-5,6,6a,7,8,9,10,11-octahydro-4H-3,11a,12,14,15-pentaaza-7,10-methanocyclohepta[4,5]cycloocta[1,2,3-de]naphthalene] | 0.1 | 0.1
13 | C#Cc1c(F)ccc2cccc(-c3nc4c5c(nc(OCC67CCCN6CCC7)nc5c3F)N3C[C@H]5CC[C@H](N5)[C@@H]3[C@@H](C)C4)c12 [Example 157, (5S,5aS,6S,9R)-2-(8-ethynyl-7-fluoronaphthalen-1-yl)-1-fluoro-5-methyl-12-((tetrahydro-1H-pyrrolizin-7a(5H)-yl)methoxy)-4,5,5a,6,7,8,9,10-octahydro-3,10a,11,13,14-pentaaza-6,9-methanonaphtho[1,8-ab]heptalene] | 0.0064 | 0.0294
14 | C#Cc1c(F)ccc2cccc(-c3nc4c5c(nc(OCC67CC8(CC8)CN6CC6(CC6)C7)nc5c3F)N3C[C@H]5CC[C@H](N5)[C@@H]3[C@@H](C)C4)c12 [Example 158] | 0.0125 | 0.1
15 | C#Cc1c(F)ccc2cccc(-c3nc4c5c(nc(OC[C@@]67CCCN6C[C@H](F)C7)nc5c3F)N3C[C@H]5CC[C@H](N5)[C@@H]3[C@H](C)CC4)c12 [Example 159, (6R,6aS,7S,10R)-2-(8-ethynyl-7-fluoronaphthalen-1-yl)-1-fluoro-13-(((2R,7aS)-2-fluorotetrahydro-1H-pyrrolizin-7a(5H)-yl)methoxy)-6-methyl-5,6,6a,7,8,9,10,11-octahydro-4H-3,11a,12,14,15-pentaaza-7,10-methanocyclohepta[4,5]cycloocta[1,2,3-de]naphthalene] | 0.1 | 0.1
16 | C#Cc1c(F)ccc2cc(O)cc(-c3nc4c5c(nc(OCC6(CN7CC[C@H](OC(F)(F)F)C7)CC6)nc5c3F)N3C[C@H]5CC[C@H](N5)[C@H]3CCC4)c12 [Example 162] | 0.0004 | 0.0005
